Data reported in patent US20260199535A1, “PCTA derivatives, conjugates thereof and uses thereof” (NOVARTIS AG, priority 2022, published 2026).
Where two headings read alike, the source gives them in different places. Each block holds one compound with its values, some of them ahead of it.

Experiments:
[1] = Buffer stability of Example 17 radiolabeled with ^68GaCl3; assay type: physicochemical; conditions: ^68Ga-labeled, sodium acetate/acetic acid reaction buffer, t=4 hours; RCP at t=0 75%
Experimental: A solution of sodium acetate trihydrate in water 1.5 M (740.0 μL), acetic acid (260.0 μL) and (((1S)-5-((2R)-2-amino-3-((2,5-dioxo-1-(4-(3,6,9-tris(carboxymethyl)-3,6,9-triaza-1(2,6)-pyridinacyclodecaphane-4-yl)butyl)pyrrolidin-3-yl)thio)propanamido)-1-carboxypentyl)carbamoyl)-L-glutamic acid (2 mM; 1.907 mg/mL; […]) were added to a 8 mL glass V-vial. This vial was sealed, the vacuum needle and the ^68Ga/HCl 0.1M needle were connected to the vial. The gallium generator was eluted to the reaction vial (approximately 260 MBq [^68Ga]GaCl3 in HCl 0.1M, 1.1 mL). The vacuum needle and the ^68Ga/HCl 0.1M needle were disconnected from the reaction vial. After shaking (600 rpm) at 45° C. for 30 min, the reaction mixture was left cooling down for few minutes. The radiochemical purity and stability were assessed using HPLC-1 conditions: Waters; column: Phenomenex Luna; particle size 2.5 μm; size: 4.6×100 mm; flow rate: 1 mL/min; mobile phase A: H2O+0.1% TFA and B: CH3CN; gradient: 10 to 80% solvent B in 9 min. RCP at t=0, 75% and stability t=4 hours, 74%.

[2] = Buffer stability of Example 17 radiolabeled with ^177LuCl3; assay type: physicochemical; conditions: ^177Lu-labeled, formulation diluted with PBS, RCP at t=0 93%
Experimental: To a mixture of sodium acetate in water (35.0 μL, 1.5 M), ascorbic acid in H2O (35.00 μL, 0.04 M), ethanol (58.5 μL) and acetic acid (1.5 μL) was added [^177Lu]LuCl3 ([…], 0.04 M HCl, 58.2 MBq). A solution of (((1S)-5-((2R)-2-amino-3-((2,5-dioxo-1-(4-(3,6,9-tris(carboxymethyl)-3,6,9-triaza-1(2,6)-pyridinacyclodecaphane-4-yl)butyl)pyrrolidin-3-yl)thio)propanamido)-1-carboxypentyl)carbamoyl)-L-glutamic acid (7.9 μL) of a 0.2 mM in water was added. After shaking (450 rpm) at 95° C. for 15 min, the reaction mixture was left cooling down for few minutes. The solution was diluted with 385 μl of PBS to keep the final formulation with EtOH below 9%. The radiochemical purity and stability were assessed using HPLC-1 conditions: Waters; column: phenomenex Luna; particle size 2.5 μm; size: 4.6×100 mm; flow rate: 1 mL/min; mobile phase A: H2O+0.1% TFA and B: CH3CN; gradient: 10 to 80% solvent B in 9 min.

[3] = crosslinker bond, 12-membered ring, CH3CN, 60.0 °C
[4] = crosslinker bond; 12-membered ring; intermediate G (1 eq)/DIPEA (5 eq); CH3CN; 15.6 mM; 60.0 °C

stability (radiochemical purity by HPLC) [1]: 74%
stability (radiochemical purity by HPLC) ([2]; t=4 hours): 94%
stability (radiochemical purity by HPLC) ([2]; t=8 hours): 95%
stability (radiochemical purity by HPLC) ([2]; t=24 hours): 94%
Compound: N[C@@H](CSC1CC(=O)N(CCCCC2CN(CC(=O)O)CCN(CC(=O)O)Cc3cccc(n3)CN2CC(=O)O)C1=O)C(=O)NCCCC[C@H](NC(=O)N[C@@H](CCC(=O)O)C(=O)O)C(=O)O (stereo partly drawn) [Example 17, (((1S)-5-((2R)-2-amino-3-((2,5-dioxo-1-(4-(3,6,9-tris(carboxymethyl)-3,6,9-triaza-1(2,6)-pyridinacyclodecaphane-4-yl)butyl)pyrrolidin-3-yl)thio)propanamido)-1-carboxypentyl)carbamoyl)-L-glutamic acid]

Compound: CC(C)(C)OC(=O)C[C@@H](NCCOCCN[C@H](CC(=O)OC(C)(C)C)c1ccccn1)C(=O)OC(C)(C)C
ring closure, isolated yield ([3]; the molecule shown is the open-chain precursor, methyl 2,6-bis(bromomethyl)isonicotinate (1 eq)/DIPEA (5 eq), 20.9 mM): 48.7%

Compound: Tri-tert-butyl 2,2′,2″-(1^4-(3-((tert-butoxycarbonyl)amino)propoxy)-3,6,9-triaza-1(2,6)-pyridinacyclodecaphane-3,6,9-triyl)(2S,2′S,2″S)-tripropionate
ring closure, yield after HPLC [4]: 52%

Compound: Tetra-tert-butyl 2,2′-(1^4-(methoxycarbonyl)-6-oxa-3,9-diaza-1(2,6)-pyridinacyclodecaphane-3,9-diyl)(2R,2′R)-disuccinate
ring closure, isolated yield ([3]; methyl 2,6-bis(bromomethyl)isonicotinate (1 eq)/DIPEA (5 eq), 17.9 mM): 57.1%

Compound: Tetra-tert-butyl 2,2′-(1^4-(3-((tert-butoxycarbonyl)amino)propoxy)-3,7-diaza-1(2,6)-pyridina-5(1,3)-benzenacyclooctaphane-3,7-diyl)(2R,2′R)-disuccinate
ring closure, isolated yield ([3]; 2,6-bis(bromomethyl)pyridine (1 eq)/DIPEA (5 eq), 32.6 mM): 55.3%
